Results reported in patent EP4000614A1, “EFLOXATE FOR USE AS ANTIVIRAL AGENT” (Consejo Superior de Investigaciones Científicas (CSIC), priority 2020, dated 2022).

How the values were obtained:
[1] = test system: SARS-CoV-2 S protein-pseudotyped retroviral vectors; assay type: cell-based
229E-GFP virus = experiment: microbe, parasite or virus in culture; assay type: cell-based, human 229E coronavirus; details: 72 h
[2] = test system: pseudotypes based on vesicular stomatitis virus (VSV-G) glycoprotein; assay type: cell-based
[3] = Cytotoxicity measurement by MTT assay; assay type: cell-based; details: African green monkey, Vero-E6 cells
Experimental: (§1) Cytotoxicity measurement by MTT assays (MTT assay: cell viability assay that infers reductive capacity of the cells via formation of formazan precipitates. Overall estimation of cell metabolic rate): Vero-E6 cell monolayers were treated with a wide range of compound concentrations (from 50 to 0.78 µM) and forty-eight hours later they were subjected to MTT assays following the manufacturer's instructions. Compound concentration leading to a 50% of cytotoxicity (CC50) were determined (Table 2).

Vero-E6 cells = experiment: Cytotoxicity measurement by MTT assay; assay type: cell-based; details: 48 hours
Experimental: as §1

SARS-CoV-2 E RNA = experiment: Intracellular viral RNA quantitation by RT-qPCR in Vero-E6 cells; assay type: cell-based; details: for VIRAL LOAD MOI 0.001 (% OF CONTROL): MOI 0.001, 48 hours, Vero-E6; for LOG DROP: relative reduction in viral RNA accumulation in log scale
in vitro = details: human
[4] = test system: SARS-CoV-2 strain NL/2020; experiment: SARS-CoV-2 cell monolayer protection assay (crystal violet) in Vero-E6 cells
RD114-pseudotypes = assay type: cell-based

Compound: CCOC(=O)COc1ccc2c(=O)cc(-c3ccccc3)oc2c1 [Efloxate, efloxate]
- Spp (% of control) [1]: 16.68 % of control
- pseudotype entry selectivity [1]: interfere selectively with Spp entry
- EC50 (229E-GFP virus; human coronavirus 229E): 1.6 µM
- EC90 (229E-GFP virus; unidentified human coronavirus): 5 µM
- VSVpp (% of control) [2]: 106.24 % of control
- CC50 at 48 h [3]: > 50 µM
- HIGHEST NON-TOXIC CONCENTRATION (MTT) (Vero-E6 cells): 12.5
- VIRAL LOAD MOI 0.001 (% OF CONTROL) (SARS-CoV-2 E RNA; dose 12.5 µM): 27.42 % OF CONTROL
- VIRAL LOAD MOI 0.001 (% OF CONTROL) (SARS-CoV-2 E RNA; dose 25 µM): 24.34 % OF CONTROL
- VIRAL LOAD MOI 0.001 (% OF CONTROL) (SARS-CoV-2 E RNA; dose 35 µM): 0.00 % OF CONTROL
- VIRAL LOAD MOI 0.001 (% OF CONTROL) (SARS-CoV-2 E RNA; dose 50 µM): 0.06 % OF CONTROL
- LOG DROP (SARS-CoV-2 E RNA; dose 12.5 µM): 0.55
- LOG DROP (SARS-CoV-2 E RNA; dose 25 µM): 0.6
- LOG DROP (SARS-CoV-2 E RNA; dose 35 µM): 5.5
- LOG DROP (SARS-CoV-2 E RNA; dose 50 µM): 3.2
- CC50 at 72 h (in vitro): 35 µM
- PC MAX ([4]; Maximum concentration that protects cells (100%) from the cytopathic effect, Vero-E6, MOI 0.001, 72 hours): 50 µM
- PC MIN ([4]; Minimum concentration that protects cells (100%) from the cytopathic effect, Vero-E6, MOI 0.001, 72 hours): 25 µM
- antiviral activity at non-cytotoxic concentrations ([4]; human coronavirus, including SARS-CoV-2): 12.5 to 50 µM
- RD114pp (% of control) (RD114-pseudotypes): 153.15 % of control
